What was measured:
[1] = test system: TDP-43 aggregation; experiment: TDP-43 aggregation assay in SY5Y TDP-43WT cells (high content imaging); type: cell-based; settings: Homo sapiens, tetracycline induction 24 hrs, 1 hour compound pre-treatment, sodium arsenite 23 hrs, 8-point dose curve, percentage of cells with TDP-43 aggregates, read-out: IC50, Inhibition of TDP-43 Aggregation
In short: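 Tetracycline-inducible eGFP-tagged wild-type human TDP-43 in SH-SY5Y cells, induced 24 h ([…]), compound pre-treated 1 h, then sodium arsenite […] for 23 h. Fixed cells imaged; percentage of DAPI-counted cells with aggregates gives IC50 from 8-point curves.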

[2] = test system: tau stress granules; experiment: SY5Y-tT1 tau arsenite assay (tau stress granules per cell); type: cell-based; settings: SY5Y-tT1 cells, 2 hours compound, 90 minutes arsenite, 50% reduction of granules per cell, read-out: IC50, Inhibitor Activity of Tau Stress Granules
In short: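 SY5Y-tT1 cells were tetracycline-induced for 48 h, pretreated 2 h with serially diluted compounds (PERK inhibitor GSK2606414 as control), then exposed to arsenite for 90 min at 37° C. After fixation and Hoechst staining, tau stress granules per cell were imaged; IC50 is the concentration halving granules per cell.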

`Cc1cc(-c2ccc(C3CCN(C(C)C)CC3)cc2)sc1C(=O)N1CC[C@H](N)C1` [Compound 183, (S)-(3-aminopyrrolidin-1-yl)(5-(4-(1-isopropylpiperidin-4-yl)phenyl)-3-methylthiophen-2-yl)methanone] was tested, and the IC50 [1] was under 500 nM and the IC50 [2] was under 500 nM.

— patent publication US20260258025A1, “INHIBITORS OF TDP-43 AND TAU AGGREGATION” (Aquinnah Pharmaceuticals, inc., priority 2023, published 2026)
